Results reported in patent publication US8946216B2, “Indazole derivatives useful as ERK inhibitors” (Merck Sharp & Dohme Corp., priority 2010, dated 2015).

How the values were obtained:
ERK protein = ERK protein (Homo sapiens, UniProt P28482); test: TdF (Temperature Dependence Fluorescence, thermal shift) assay for ERK; type: binding; settings: read-out: TdF Kd; 3 μM ERK protein, 15, 50 or 100 μM compound, Sypro Orange; Kd calculated from ΔTm; uncertainty estimated ±50%
Source text: Assays: TdF Assay for ERK
The SAR (Structure Activity Relationship) for ERK ligands covered by this invention was interrogated using the TdF (Temperature Dependence Fluorescence) assay or best known as thermal shift assay. The TdF assay was mainly conducted in the 96-well based CHROMO-4 real time fluorescence plate reader (BioRad). The Sypro Orange (Sigma-Aldrich), environmentally sensitive fluorescence dye, was used to monitor the protein folding-unfolding transition. Protein-ligand binding was gauged by the change (or shift) in the unfolding transition temperature (ΔTm) acquired at protein alone with respect to protein in the presence of ligand of interest.
Compound of interest was first prepared in DMSO stock (typical concentration: 10 mM). Sample of 20 μL was then added into the 96-well PCR plate, where it consisted of 3 μM. […] Final percentage of DMSO resided in the sample was 2%. The sample plate was heated from 30° C. to 90° C. with thermal ramping rate of 1 ° C./min. The fluorescence signals were acquired with excitation and emission wavelengths centered at 490 and 560 nm respectively. The instrument thermal stability was ±0.2° C. The melting temperatures (Tm) for ERK protein under aforementioned conditions occurred at 61.0±0.2° C. and 64.8±0.2° C. respectively.
Theoretical Basis for TdF-based Ligand Binding Affinity Constant
The derivation of TdF-based ligand binding affinity constant (Kd) followed closely those previously formulated by Brandts and Lin [2]. In brief, the binding constant of the ligand at the Tm is expressed as below: […]
where T0 is the midpoint of unfolding for unliganded protein and Tm is the midpoint of unfolding in presence of ligand. [LTm] is free ligand at Tm. The ΔHu and ΔCpu are the enthalpy of unfolding and heat capacity change of unfolding for the protein respectively. Following algorithm derived by Winsor and coworker, the T0, ΔHu and ΔCpu can be determined separately from nonlinear regression fitting the protein alone melting curve:
Where F(T) is the observed fluorescence intensity at any temperature T, Yn and Yu are the predicted fluorescence intensities for fully folded and unfolded protein, respectively; mn and mu are slope correction for changes in Yn and Yu with respect to changes in temperature (analogously replace T0 with Tm in the above equation for liganded protein to yield Tm).
where ΔHL(T) is the van't Hoff enthalpy of ligand binding at temperature T and ΔCpL is the heat capacity upon ligand binding. For simplicity, the ΔCpL and ΔHL(T) were set to zero and −7 kcal/mol respectively. The uncertainty in the calculated ligand binding affinity constant was estimated to be ±50%.

[1] = target: unphosphorylated Mouse ERK2 protein (inactive ERK2) (Mus musculus, UniProt P63085); test: Coupled ERK2 (cERK) assay, coupled MEK1/ERK2 IMAP; type: biochemical; settings: 30 min preincubation with inactive ERK2, then activation by human MEK1; 30 μM ATP; fluorescence polarization; read-out: cERK2 IC50
Sequence of unphosphorylated Mouse ERK2 protein (inactive ERK2) (P63085 whole entry): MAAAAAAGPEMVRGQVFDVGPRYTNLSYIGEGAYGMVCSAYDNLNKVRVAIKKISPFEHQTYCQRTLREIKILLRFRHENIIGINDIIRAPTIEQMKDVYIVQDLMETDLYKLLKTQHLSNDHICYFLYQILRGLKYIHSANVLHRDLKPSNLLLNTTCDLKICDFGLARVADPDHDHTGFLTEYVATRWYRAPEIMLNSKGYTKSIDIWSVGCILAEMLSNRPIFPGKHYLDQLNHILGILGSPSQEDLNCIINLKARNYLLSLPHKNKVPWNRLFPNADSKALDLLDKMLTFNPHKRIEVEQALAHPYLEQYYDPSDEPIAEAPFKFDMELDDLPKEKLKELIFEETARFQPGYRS
Source text: • 1. M. W. Pantoliana, E. C. Petrella, J. D. Kwasnoski, V. S. Lobanov, J. Myslik, E. Graf, T. Carver, E. Asel, B. A. Springer, P. Lane, F. R. Salemme, High-density miniaturized thermal shift assays as a general strategy for drug discovery, J. Biomol. Screen 6 (2001) 429-440 • 2. J. F. Brandts, L.-N. Lin, Study of strong to ultratight protein interactions using differential scanning calorimetry, Biochemistry 29 (1990) 6927-6940 • 3. Mayhood, T. W., Windsor, W. T., Ligand binding affinity determined by temperature-dependent circular dichroism: Cyclin-dependent kinase 2 inhibitors, Analytical Biochemistry 345 (2005) 187-197 Coupled ERK2 (cERK) Assay:
14 μl of kinase buffer (10 mM Tris.HCl pH 7.2, 10 mM MgCl2, 0.01% Tween-20, 1 mM DTT) containing 0.4 ng unphosphorylated Mouse ERK2 protein was added to each well of a black 384-well assay plate. […] DMSO concentration during initial incubation is 6.7%. ERK2 activity was determined to be insensitive to DMSO concentrations up to 20%. ERK2 was then activated and it's kinase activity measured by the addition of 10 μl kinase buffer with the following components (final concentration per reaction): 2 ng active (phosphorylated) human MEK1 protein and 4 μM (total) ERK2 IMAP substrate peptides (3.9 μM unlabeled IPTTPITTTYFFFK-CONH2 and 100 nM IPTTPITTTYFFFK(5-carboxyfluorescein)-CONH2) and 30 μM ATP. DMSO concentration during ERK activation was 4%. After one hour, reactions were terminated by addition of 60 μl IMAP detections beads in binding buffer (Molecular Devices). Binding was allowed to equilibrate for 30 minutes before reading the plate on an LJL Analyst Fluorescence Polarization plate reader. […] Active compounds were reconfirmed in an independent assay.

Sequence of ERK protein (P28482 2-360): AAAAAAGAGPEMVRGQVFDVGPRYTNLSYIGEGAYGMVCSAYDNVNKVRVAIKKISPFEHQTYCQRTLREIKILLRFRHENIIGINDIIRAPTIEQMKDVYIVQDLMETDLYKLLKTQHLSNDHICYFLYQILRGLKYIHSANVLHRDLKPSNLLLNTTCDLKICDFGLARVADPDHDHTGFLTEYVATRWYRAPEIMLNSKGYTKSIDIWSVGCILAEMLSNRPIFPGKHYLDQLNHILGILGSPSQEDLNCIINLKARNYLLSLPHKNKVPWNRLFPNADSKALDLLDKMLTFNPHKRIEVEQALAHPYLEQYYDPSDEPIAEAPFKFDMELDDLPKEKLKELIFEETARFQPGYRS

Compound	Kd (ERK protein) [nM]	IC50 [1] [nM]
COc1cccc(CN2CCOC(C(=O)Nc3ccc4[nH]nc(-c5ccncc5)c4c3)C2)c1 (centres unmarked) [Compound 28, 4-[(3-METHOXYPHENYL)METHYL]-N-[3-(4-PYRIDINYL)-1H-INDAZOL-5-YL]-2-MORPHOLINECARBOXAMIDE]	3620	290
O=C(Nc1ccc2[nH]nc(-c3ccncc3)c2c1)C1CN(Cc2ccc(F)c(Cl)c2)CCO1 (centres unmarked) [Compound 49, 4-[(3-CHLORO-4-FLUOROPHENYL)METHYL]-N-[3-(4-PYRIDINYL)-1H-INDAZOL-5-YL]-2-MORPHOLINECARBOXAMIDE]	910	1780
O=C(Nc1ccc2[nH]nc(-c3ccncc3)c2c1)C1CNCCN1c1ccccc1 (centres unmarked) [Compound 54, 1-PHENYL-N-[3-(4-PYRIDINYL)-1H-INDAZOL-5-YL]-2-PIPERAZINECARBOXAMIDE]	30	168
COc1ccc(CN2CCOC(C(=O)Nc3ccc4[nH]nc(-c5ccncc5)c4c3)C2)cc1 (centres unmarked) [Compound 33, 4-[(4-METHOXYPHENYL)METHYL]-N-[3-(4-PYRIDINYL)-1H-INDAZOL-5-YL]-2-MORPHOLINECARBOXAMIDE]	1140	226
O=C(Nc1ccc2[nH]nc(-c3ccncc3)c2c1)C1CN(Cc2ccc(Cl)cc2)CCO1 (centres unmarked) [Compound 27, 4-[(4-CHLOROPHENYL)METHYL]-N-[3-(4-PYRIDINYL)-1H-INDAZOL-5-YL]-2-MORPHOLINECARBOXAMIDE]	3530	538
O=C(Nc1ccc2[nH]nc(-c3ccncc3)c2c1)C1CN(Cc2ccccc2Cl)CCO1 (centres unmarked) [Compound 15, 4-[(2-CHLOROPHENYL)METHYL]-N-[3-(4-PYRIDINYL)-1H-INDAZOL-5-YL]-2-MORPHOLINECARBOXAMIDE]	17	77.8
O=C(Nc1ccc2[nH]nc(-c3ccncc3)c2c1)C1CN(Cc2ccsc2)CCO1 (centres unmarked) [Compound 3, N-[3-(4-PYRIDINYL)-1H-INDAZOL-5-YL]-4-(3-THIENYLMETHYL)-2-MORPHOLINECARBOXAMIDE]	77	87.6
O=C(Nc1ccc2[nH]nc(-c3ccncc3)c2c1)C1CN(Cc2cscn2)CCS1 (centres unmarked) [Compound 13, N-[3-(4-PYRIDINYL)-1H-INDAZOL-5-YL]-4-(4-THIAZOLYLMETHYL)-2-THIOMORPHOLINECARBOXAMIDE]	201	929
O=C(Nc1ccc2[nH]nc(-c3ccncc3)c2c1)C1CCCNC1 (centres unmarked) [Compound 25, N-[3-(4-PYRIDINYL)-1H-INDAZOL-5-YL]-3-PIPERIDINECARBOXAMIDE]	4500	631
O=C(Nc1ccc2[nH]nc(-c3ccncc3)c2c1)C1CN(Cc2ccccc2)CCO1 (centres unmarked) [Compound 20, 4-(PHENYLMETHYL)-N-[3-(4-PYRIDINYL)-1H-INDAZOL-5-YL]-2-MORPHOLINECARBOXAMIDE]	10	51.1
O=C(Nc1ccc2[nH]nc(-c3ccncc3)c2c1)C1CN(Cc2c(F)cccc2C(F)(F)F)CCO1 (centres unmarked) [Compound 39, 4-[[2-FLUORO-6-(TRIFLUOROMETHYL)PHENYL]METHYL]-N-[3-(4-PYRIDINYL)-1H-INDAZOL-5-YL]-2-MORPHOLINECARBOXAMIDE]	715	4760
O=C(Nc1ccc2[nH]nc(-c3ccncc3)c2c1)C1CN(Cc2ccccc2)CCC1O (centres unmarked) [Compound 71, 4-HYDROXY-1-(PHENYLMETHYL)-N-[3-(4-PYRIDINYL)-1H-INDAZOL-5-YL]-3-PIPERIDINECARBOXAMIDE]	84.1	–
O=C(Nc1ccc2[nH]nc(-c3ccncc3)c2c1)C1CN(Cc2ccccc2Br)CCO1 (centres unmarked) [Compound 7, 4-[(2-BROMOPHENYL)METHYL]-N-[3-(4-PYRIDINYL)-1H-INDAZOL-5-YL]-2-MORPHOLINECARBOXAMIDE]	17	96.9
CN1CCCC(C(=O)Nc2ccc3[nH]nc(-c4ccncc4)c3c2)C1 (centres unmarked) [Compound 26, 1-METHYL-N-[3-(4-PYRIDINYL)-1H-INDAZOL-5-YL]-3-PIPERIDINECARBOXAMIDE]	1100	4870
COc1ccc(CN2CCOC(C(=O)Nc3ccc4[nH]nc(-c5ccncc5)c4c3)C2)c(F)c1 (centres unmarked) [Compound 38, 4-[(2-FLUORO-4-METHOXYPHENYL)METHYL]-N-[3-(4-PYRIDINYL)-1H-INDAZOL-5-YL]-2-MORPHOLINECARBOXAMIDE]	588	556
O=C(NCc1ccccc1)c1n[nH]c2ccc(NC(=O)C3CN(Cc4ccccc4F)CCS3)cc12 (centres unmarked) [Compound 77, 5-[[[4-[(2-FLUOROPHENYL)METHYL]-2-THIOMORPHOLINYL]CARBONYL]AMINO]-N-(PHENYLMETHYL)-1H-INDAZOLE-3-CARBOXAMIDE]	1800	3100
N#Cc1ccccc1CN1CCOC(C(=O)Nc2ccc3[nH]nc(-c4ccncc4)c3c2)C1 (centres unmarked) [Compound 32, 4-[(2-CYANOPHENYL)METHYL]-N-[3-(4-PYRIDINYL)-1H-INDAZOL-5-YL]-2-MORPHOLINECARBOXAMIDE]	775	383
CNC(=O)c1n[nH]c2ccc(NC(=O)C3CN(Cc4ccccc4F)CCS3)cc12 (centres unmarked) [Compound 75, 5-[[[4-[(2-FLUOROPHENYL)METHYL]-2-THIOMORPHOLINYL]CARBONYL]AMINO]-N-METHYL-1H-INDAZOLE-3-CARBOXAMIDE]	250	350
O=C(Nc1ccc2[nH]nc(-c3ccncc3)c2c1)C1CN(Cc2ccccn2)CCS1 (centres unmarked) [Compound 12, N-[3-(4-PYRIDINYL)-1H-INDAZOL-5-YL]-4-(2-PYRIDINYLMETHYL)-2-THIOMORPHOLINECARBOXAMIDE]	674	1310
CCCCNC(=O)c1n[nH]c2ccc(NC(=O)C3CN(Cc4ccccc4F)CCS3)cc12 (centres unmarked) [Compound 76, N-BUTYL-5-[[[4-[(2-FLUOROPHENYL)METHYL]-2-THIOMORPHOLINYL]CARBONYL]AMINO]-1H-INDAZOLE-3-CARBOXAMIDE]	920	873
O=C(Nc1ccc2[nH]nc(-c3ccncc3)c2c1)C1CCCN(Cc2ccccc2Cl)C1 (centres unmarked) [Compound 23, 1-[(2-CHLOROPHENYL)METHYL]-N-[3-(4-PYRIDINYL)-1H-INDAZOL-5-YL]-3-PIPERIDINECARBOXAMIDE]	3	158
COc1cc(F)c(CN2CCOC(C(=O)Nc3ccc4[nH]nc(-c5ccncc5)c4c3)C2)cc1OC (centres unmarked) [Compound 40, 4-[(2-FLUORO-4,5-DIMETHOXYPHENYL)METHYL]-N-[3-(4-PYRIDINYL)-1H-INDAZOL-5-YL]-2-MORPHOLINECARBOXAMIDE]	1190	1110
O=C(Nc1ccc2[nH]nc(-c3ccncc3)c2c1)C1CCCN(Cc2ccccc2F)C1 (centres unmarked) [Compound 22, 1-[(2-FLUOROPHENYL)METHYL]-N-[3-(4-PYRIDINYL)-1H-INDAZOL-5-YL]-3-PIPERIDINECARBOXAMIDE]	9	27.3
O=C(Nc1ccc2[nH]nc(-c3ccncc3)c2c1)C1CN(Cc2ccc(Cl)cc2F)CCO1 (centres unmarked) [Compound 41, 4-[(4-CHLORO-2-FLUOROPHENYL)METHYL]-N-[3-(4-PYRIDINYL)-1H-INDAZOL-5-YL]-2-MORPHOLINECARBOXAMIDE]	584	419
